Measurements published in paper PMC6780165, “Verruculosins A–B, New Oligophenalenone Dimers from the Soft Coral-Derived Fungus Talaromyces verruculosus” (Marine Drugs, 2019).

Legend:
EGFR tyrosine kinase = EGFR tyrosine kinase (Homo sapiens, UniProt P00533); experiment: EGFR tyrosine kinase inhibitory activity (ELISA); format: biochemical; conditions: poly(Glu, Tyr)4:1 substrate, 10 μM ATP, 60 min at 37 °C, read-out: Anti-EGFR IC50 (µM) ± SD
Protocol: The EGFR tyrosine kinase inhibitory activity was tested using enzyme-linked immunosorbent assay (ELISA). The compounds were dissolved in dimethyl sulfoxide (DMSO) buffer solution and were then distributed to a 96-well plate pre-coated with poly(Glu, Tyr)4:1 as a substrate. Each well was treated with 50 μL of 10 μM ATP solution diluted with reaction buffer and the reaction was started by the addition of EGFR tyrosine kinase. After 60 min of incubation at 37 °C, the plate was washed three times with phosphate buffered saline containing 0.1% Tween 20 (PBST). Next, antiphosphotyrosine (PY99) antibody 100 μL was added. After incubation for 30 min at 37 °C, the plate was washed three times and goat anti-mouse IgG horseradish peroxidase was added. The plate was reincubated at 37 °C for 30 min and washed as before. Lastly, 100 μL of color development solution was added and the plate was incubated at room temperature until color emerged. The reaction was terminated by adding 50 μL of 2 M H2SO4, and the absorbance was measured on the Molecular Devices SpectraMax 190 microplatereader at 490 nm [20]. The known EGFR inhibitor, afatibib, was utilized as a positive control, and 0.1% (v/v) DMSO was used as a negative control.

CDC25B = molecular target: T1, CDC25B (Homo sapiens, UniProt P30305); experiment: CDC25B enzymatic activity assay (OMFP dephosphorylation); format: biochemical; conditions: OMFP substrate 10 μM, 100 nM CDC25B, 30 °C, pH 8.0; read-out: Anti-CDC25B IC50 (µM) ± SD
T1 sequence (P30305 1-580): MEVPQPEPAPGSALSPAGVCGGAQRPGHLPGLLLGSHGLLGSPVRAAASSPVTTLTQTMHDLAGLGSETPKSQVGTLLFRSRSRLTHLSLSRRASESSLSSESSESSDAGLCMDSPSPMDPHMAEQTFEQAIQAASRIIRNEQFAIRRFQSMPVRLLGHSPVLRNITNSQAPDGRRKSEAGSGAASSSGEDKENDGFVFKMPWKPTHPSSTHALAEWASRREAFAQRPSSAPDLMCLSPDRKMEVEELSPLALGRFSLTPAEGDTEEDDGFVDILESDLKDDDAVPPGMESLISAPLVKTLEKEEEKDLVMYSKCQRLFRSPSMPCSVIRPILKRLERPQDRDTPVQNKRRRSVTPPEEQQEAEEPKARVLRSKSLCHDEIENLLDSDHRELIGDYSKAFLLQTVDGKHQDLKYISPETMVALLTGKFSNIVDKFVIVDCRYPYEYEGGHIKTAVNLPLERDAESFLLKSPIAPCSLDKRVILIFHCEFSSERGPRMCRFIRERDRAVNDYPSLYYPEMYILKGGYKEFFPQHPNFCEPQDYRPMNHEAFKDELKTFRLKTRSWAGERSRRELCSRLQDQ
Protocol: The enzymatic activity of the CDC25B was determined at 30 °C by monitoring the dephosphorylation of 3-O-methylfluorescein phosphate (OMFP), which was used as a substrate for the CDC25B and can be monitored at a 535 nm emission wavelength and 485 nm excitation wavelength in the EnVisionmultilabel plate reader. The assay was measured in a 100 μL mixture system containing 50 mM Tris-HCl, pH 8.0, 50 mM NaCl, 10 μM OMFP, 100 nM CDC25B, 1 mM dithiothreitol (DTT), 1 mM ethylene diamine tetraacetic acid (EDTA), 1% glycerin, and 2 mg/L compound. The initial rate of the dephosphorylation was determined using the early linear region of the enzymatic reaction kinetic curve. DMSO and Na3VO4 were used as negative and positive controls, respectively.

[1] = test system: human non-small cell lung carcinoma (NCL-H460) cells; parameters: method as in ref 8, ref 9; conditions: cited from earlier work
[2] = test system: human breast cancer (MCF-7) cells; parameters: method as in ref 8, ref 9; conditions: cited from earlier work
[3] = test system: human cervical cancer (Hela) cells; parameters: method as in ref 8, ref 9; conditions: cited from earlier work
[4] = test system: murine leukemia L-1210 cells; parameters: method as in ref 5, ref 6; conditions: cited from earlier work
[5] = test system: mitochondrial respiration; parameters: method as in PMID 7122988; conditions: cited from earlier work

EGFR tyrosine kinase, sequence (P00533 25-1210): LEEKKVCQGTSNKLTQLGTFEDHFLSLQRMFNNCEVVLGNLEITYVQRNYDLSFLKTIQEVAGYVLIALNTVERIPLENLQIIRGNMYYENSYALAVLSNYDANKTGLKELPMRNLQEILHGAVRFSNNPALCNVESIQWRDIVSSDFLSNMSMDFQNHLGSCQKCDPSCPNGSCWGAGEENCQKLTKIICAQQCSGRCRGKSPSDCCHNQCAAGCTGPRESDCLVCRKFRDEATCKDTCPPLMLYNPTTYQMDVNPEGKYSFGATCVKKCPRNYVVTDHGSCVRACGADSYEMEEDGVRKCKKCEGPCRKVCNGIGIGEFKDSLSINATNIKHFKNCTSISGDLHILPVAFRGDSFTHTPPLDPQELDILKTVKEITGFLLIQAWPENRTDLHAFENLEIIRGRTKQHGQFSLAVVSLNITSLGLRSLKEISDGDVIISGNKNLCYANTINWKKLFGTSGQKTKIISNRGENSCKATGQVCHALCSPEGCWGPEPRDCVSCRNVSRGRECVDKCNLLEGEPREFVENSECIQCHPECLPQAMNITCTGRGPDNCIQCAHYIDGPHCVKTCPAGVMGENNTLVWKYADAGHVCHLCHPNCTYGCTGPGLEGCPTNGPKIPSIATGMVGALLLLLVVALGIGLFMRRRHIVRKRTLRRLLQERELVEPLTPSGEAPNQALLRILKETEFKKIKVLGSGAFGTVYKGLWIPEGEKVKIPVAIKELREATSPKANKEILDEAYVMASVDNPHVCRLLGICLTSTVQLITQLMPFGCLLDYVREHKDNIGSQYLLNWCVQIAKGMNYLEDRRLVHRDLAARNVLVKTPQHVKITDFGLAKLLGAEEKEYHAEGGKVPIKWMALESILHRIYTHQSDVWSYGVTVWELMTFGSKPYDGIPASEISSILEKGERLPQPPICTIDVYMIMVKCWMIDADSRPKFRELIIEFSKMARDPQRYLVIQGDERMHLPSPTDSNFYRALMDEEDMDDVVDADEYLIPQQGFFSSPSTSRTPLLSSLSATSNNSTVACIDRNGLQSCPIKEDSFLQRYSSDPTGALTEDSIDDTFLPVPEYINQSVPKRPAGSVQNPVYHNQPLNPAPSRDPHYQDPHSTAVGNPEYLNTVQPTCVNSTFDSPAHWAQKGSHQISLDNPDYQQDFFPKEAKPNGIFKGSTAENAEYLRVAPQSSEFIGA

Compound: COC(=O)CC1OC(=O)c2c(O)cc(C)c3c2C1=C(O)C1C24COC(=O)c5c(O)cc(C)c(c52)C(=O)C(C4OC(C)=O)C31OC (centres unmarked) [Compound 2, verruculosin B]
- IC50 (EGFR tyrosine kinase): 1.22 ± 0.53 µM

Compound: CC(=O)OC1C2C(=O)c3c(C)cc(O)c4c3C1(COC4=O)c1c(O)c3c4c(c(O)cc(C)c4c12)C(=O)OC3=O (centres unmarked) [Compound 5, xenoclauxin]
- IC50 (EGFR tyrosine kinase): 0.24 ± 0.17 µM
- IC50 (CDC25B): 0.26 ± 0.06 µM

Compound: COC12c3c(C)cc(O)c4c3C3=C(OC(C)(O)CC3OC4=O)C1C13COC(=O)c4c(O)cc(C)c(c41)C(=O)C2C3OC(C)=O (centres unmarked) [Compound 1, verruculosin A]
- IC50 (EGFR tyrosine kinase): 0.92 ± 0.25 µM
- IC50 (CDC25B): 0.38 ± 0.03 µM

Compound: COC1OC(=O)c2c(O)cc(C)c3c4c(c(O)c1c23)C12COC(=O)c3c(O)cc(C)c(c31)C(=O)C4C2OC(C)=O (centres unmarked) [Compound 3, bacillisporin F]
- IC50 (EGFR tyrosine kinase): 4.41 ± 2.32 µM
- IC50 (CDC25B): 0.4 ± 0.02 µM

Compound: Bascillosporin A
- cytotoxicity against NCL-H460 cells (in words) [1]: high cytotoxicity
- cytotoxicity against MCF-7 cells (in words) [2]: high cytotoxicity

Compound: Bascillosporin B [Bascillosporins B]
- cytotoxicity against NCL-H460 cells (in words) [1]: moderately active
- cytotoxicity against MCF-7 cells (in words) [2]: moderately active
- activity against Hela cells (in words) [3]: moderately active

Compound: Bascillosporin H
- cytotoxicity against NCL-H460 cells (in words) [1]: moderately active
- cytotoxicity against MCF-7 cells (in words) [2]: moderately active
- activity against Hela cells (in words) [3]: moderately active

Compound: COC12c3c(C)cc(O)c4c(=O)occ(c34)C(=O)C1C13COC(=O)c4c(O)cc(C)c(c41)C(=O)C2C3OC(C)=O (centres unmarked) [Compound 4, duclauxin]
- IC50 (EGFR tyrosine kinase): 0.95 ± 0.64 µM
- activity against murine leukemia L-1210 cells (in words) [4]: highly active
- inhibitory effects on mitochondrial respiration (in words) [5]: strong inhibitory effects
- IC50 (CDC25B): 0.75 ± 0.18 µM

Compound: Bascillosporin C
- cytotoxicity against NCL-H460 cells (in words) [1]: moderately active
- cytotoxicity against MCF-7 cells (in words) [2]: moderately active
- activity against Hela cells (in words) [3]: moderately active

Compound: [Na+].[Na+].[Na+].[O]=[V]([O-])([O-])[O-] [Na3VO4, reference compound]
- IC50 (CDC25B): 0.52 ± 0.02 µM
